# Measurements: ChEMBL document CHEMBL4270520, “From hit to lead: Structure-based discovery of naphthalene-1-sulfonamide derivatives as potent and selective inhibitors of fatty acid binding protein 4” (Eur J Med Chem, 2018)
# Columns and labels:
# [1] = in vitro; conditions: mouse, plasma
# Description: Protein binding in mouse plasma at 1 uM after 16 hrs by LC-MS/MS analysis
# [2] = biological target: T1, Fatty acid-binding protein, adipocyte (Homo sapiens, UniProt P15090)
# Description: Displacement of 1,8-ANS from FABP4 (unknown origin) after 3 mins by fluorescence assay
# [3] = biological target: Fatty acid-binding protein, heart (Homo sapiens, UniProt P05413); assay: Inhibition of FABP3 (unknown origin)
# [4] = biological target: T1, Fatty acid-binding protein, adipocyte; assay: Binding affinity to FABP4 (unknown origin) by isothermal calorimetric titration method
# [5] = test system: 3T3-L1; assay: Cytotoxicity against mouse 3T3L1 pre-adipocytes assessed as effect on cell viability up to 80 uM after 24 hrs by MTT assay; assay type: cell-based; conditions: 3t3-l1, 24 h
# [6] = Half life in human liver microsomes at 0.1 uM by HPLC-MS/MS analysis; assay type: ADME, microsome
# [7] = Half life in rat liver microsomes at 0.1 uM by HPLC-MS/MS analysis; assay type: ADME, microsome
# [8] = Half life in mouse liver microsomes at 0.1 uM by HPLC-MS/MS analysis; assay type: ADME, microsome
# [9] = Intrinsic clearance in human liver microsomes assessed per gram of protein at 0.1 uM by HPLC-MS/MS analysis; assay type: ADME, microsome
# [10] = Intrinsic clearance in rat liver microsomes assessed per gram of protein at 0.1 uM by HPLC-MS/MS analysis; assay type: ADME, microsome
# [11] = Intrinsic clearance in mouse liver microsomes assessed per gram of protein at 0.1 uM by HPLC-MS/MS analysis; assay type: ADME, microsome
# [12] = Stability in human liver microsomes assessed as parent compound remaining at 0.1 uM after 60 mins by HPLC-MS/MS analysis; assay type: ADME, microsome; conditions: read-out: Stability
# [13] = Stability in rat liver microsomes assessed as parent compound remaining at 0.1 uM after 60 mins by HPLC-MS/MS analysis; assay type: ADME, microsome; conditions: read-out: Stability
# [14] = Stability in mouse liver microsomes assessed as parent compound remaining at 0.1 uM after 60 mins by HPLC-MS/MS analysis; assay type: ADME, microsome; conditions: read-out: Stability
# [15] = test system: Mus musculus; assay: Toxicity in C57BL/Ksj db/db mouse assessed as body weight loss at 100 mg/kg, po administered once daily via lavage for 5 weeks measured daily during compound dosing; assay type: organism-based; conditions: in vivo, 840 h
# [16] = test system: Mus musculus; assay: Hepatotoxicity in C57BL/Ksj db/db mouse at 100 mg/kg, po administered once daily via lavage for 5 weeks measured daily during compound dosing; assay type: toxicity, organism-based; conditions: in vivo, 840 h
# [17] = test system: Mus musculus; assay: Renal toxicity in C57BL/Ksj db/db mouse at 100 mg/kg, po administered once daily via lavage for 5 weeks measured daily during compound dosing; assay type: organism-based; conditions: in vivo, 840 h
# [18] = test system: Mus musculus; assay: Toxicity in C57BL/Ksj db/db mouse assessed as effect on pancreas at 100 mg/kg, po administered once daily via lavage for 5 weeks measured daily during compound dosing; assay type: organism-based; conditions: in vivo, 840 h
# [19] = test system: Mus musculus; assay: Toxicity in C57BL/Ksj db/db mouse assessed as effect on abdominal adipose tissue lipid content at 100 mg/kg, po administered once daily via lavage for 5 weeks measured daily during compound dosing; assay type: organism-based; conditions: in vivo, 840 h
# [20] = test system: Mus musculus; assay: Effect on total cholesterol levels in C57BL/Ksj db/db mouse at 100 mg/kg, po administered once daily via lavage for 2 to 4 weeks; assay type: ADME, organism-based; conditions: in vivo
# [21] = test system: Mus musculus; assay: Antidiabetic activity in C57BL/Ksj db/db mouse assessed as reduction in fasting blood glucose level at 100 mg/kg, po administered once daily via lavage for 14 to 35 days relative to control; assay type: functional; design: scale not given: the % may be the effect or the level left
# Fatty acid-binding protein, heart, sequence (P05413 whole entry): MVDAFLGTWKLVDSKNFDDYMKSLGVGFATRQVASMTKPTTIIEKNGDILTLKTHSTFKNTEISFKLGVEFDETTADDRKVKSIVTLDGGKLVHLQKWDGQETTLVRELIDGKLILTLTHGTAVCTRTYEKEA
# T1 sequence (P15090 whole entry): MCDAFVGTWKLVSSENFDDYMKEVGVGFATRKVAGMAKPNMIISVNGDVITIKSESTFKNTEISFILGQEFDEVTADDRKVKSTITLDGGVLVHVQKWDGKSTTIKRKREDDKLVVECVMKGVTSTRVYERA
smiles,measurement,setting,value
CC(C)NCC(O)COc1cccc2ccccc12 (configuration not stated) [PROPRANOLOL],"fraction unbound at 16 h, 1 µM",[1],0.109
COc1ccc(S(=O)(=O)Nc2ccc(C(=O)O)cc2)c2ccccc12,Ki,[2],1.28 µM
COc1ccc(S(=O)(=O)Nc2cc(F)cc(C(=O)O)c2)c2ccccc12,Ki,[2],1.15 µM
Cc1cc(C)c(S(=O)(=O)NCCCCC(=O)O)c(C)c1,Ki,[2],2.69 µM
COc1ccc(S(=O)(=O)Nc2cc(C(=O)O)ccn2)c2ccccc12,Ki,[2],> 6.14 µM
COc1ccc(S(=O)(=O)Nc2cc(C(=O)O)c(F)cc2F)c2ccccc12,IC50,[3],> 100 µM
same,IC50,[2],1.84 µM
same,Ki,[2],0.23 µM
COc1ccc(S(=O)(=O)Nc2cc(C(=O)O)ccc2C)c2ccccc12,Ki,[2],2.76 µM
COc1ccc(S(=O)(=O)Nc2cccc(C(=O)O)c2F)c2ccccc12,Kd,[4],6.03 µM
same,Ki,[2],7.75 µM
COc1ccc(S(=O)(=O)Nc2ccc(C)c(C(=O)O)c2)c2ccccc12,Ki,[2],> 6.14 µM
O=C(O)CCCNS(=O)(=O)c1cc(Cl)cc(Cl)c1,Ki,[2],2.55 µM
O=C(O)CCCCCNS(=O)(=O)c1cc(Cl)cc(Cl)c1,Ki,[2],4.84 µM
COc1ccc(S(=O)(=O)Nc2ccc(F)c(C(=O)O)c2F)c2ccccc12,Ki,[2],7.38 µM
COc1ccc(S(=O)(=O)Nc2cc(C(=O)O)ccc2Cl)c2ccccc12,Ki,[2],0.93 µM
COc1ccc(S(=O)(=O)Nc2cc(Cl)cc(C(=O)O)c2)c2ccccc12,Ki,[2],0.82 µM
COc1ccc(S(=O)(=O)NC(C)c2cccc(C(=O)O)c2)c2ccccc12 (configuration not stated),Ki,[2],> 6.14 µM
COc1ccc(S(=O)(=O)Nc2cccc(C(=O)O)c2)c2ccccc12,IC50,[3],> 100 µM
same,IC50,[2],3.22 µM
same,Ki,[2],0.4 µM
O=C(O)CCCCNS(=O)(=O)c1ccc(Cl)c2ccccc12,Ki,[2],1.85 µM
COc1ccc(S(=O)(=O)Nc2cccc(CCC(=O)O)c2)c2ccccc12,Ki,[2],0.58 µM
O=C(O)CCNS(=O)(=O)c1cc(Cl)cc(Cl)c1,Ki,[2],6.51 µM
O=C(O)CCCCNS(=O)(=O)c1ccc(Br)c2ccccc12,Ki,[2],1.16 µM
COc1ccc(S(=O)(=O)Nc2cccc(CC(=O)O)c2)c2ccccc12,Ki,[2],0.84 µM
O=C(O)CCCCNS(=O)(=O)c1ccc(F)c2ccccc12,Ki,[2],2.16 µM
COc1ccc(S(=O)(=O)Nc2cccc(C(=O)O)c2C)c2ccccc12,Ki,[2],> 6.14 µM
COc1ccc(S(=O)(=O)Nc2cncc(C(=O)O)c2)c2ccccc12,Ki,[2],> 6.14 µM
COc1ccc(S(=O)(=O)Nc2ccc(F)c(C(=O)O)c2)c2ccccc12,IC50,[3],> 100 µM
same,Activity,[5],Non-Toxic
same,half-life at 0.1 µM,[6],4.66 h
same,half-life at 0.1 µM,[7],11.1 h
same,half-life at 0.1 µM,[8],24.6 h
same,CLint,[9],7.51 mL/min/g
same,CLint,[10],3.15 mL/min/g
same,CLint,[11],1.4 mL/min/g
same,"remaining at 1 h, 0.1 µM",[12],72.3%
same,"remaining at 1 h, 0.1 µM",[13],93.4%
same,"remaining at 1 h, 0.1 µM",[14],96.9%
same,Activity,[15],Non-Toxic
same,Activity,[16],Non-Toxic
same,Activity,[17],Non-Toxic
same,Activity,[18],Non-Toxic
same,Activity,[19],Non-Toxic
same,Activity,[20],Non-Toxic
same,Activity,[21],20 - 35%
same,IC50,[2],1.69 µM
same,Ki,[2],0.21 µM
same,"fraction unbound at 16 h, 1 µM",[1],0.0147
O=C(O)CSCC(=O)Nc1cc(Cl)cc(Cl)c1,Ki,[2],1.66 µM
COc1ccc(S(=O)(=O)NCc2ccc(C(=O)O)cc2)c2ccccc12,Ki,[2],0.76 µM
Cc1cc(C)c(C)c(S(=O)(=O)NCCCCC(=O)O)c1C,Ki,[2],1.95 µM
Cc1c(C)c(C)c(S(=O)(=O)NCCCCC(=O)O)c(C)c1C,Ki,[2],0.91 µM
COc1ccc(S(=O)(=O)NCc2cccc(C(=O)O)c2)c2ccccc12,Ki,[2],2.12 µM
COc1ccc(S(=O)(=O)Nc2ccc(CC(=O)O)cc2)c2ccccc12,Ki,[2],1.67 µM
O=C(O)CCCNC(=O)c1cc(Cl)cc(Cl)c1,Ki,[2],4.32 µM
COc1ccc(C(=O)O)cc1NS(=O)(=O)c1ccc(OC)c2ccccc12,Ki,[2],> 6.14 µM
COc1ccc(S(=O)(=O)Nc2cc(C(=O)O)ccc2F)c2ccccc12,IC50,[3],> 100 µM
same,Activity,[5],Non-Toxic
same,half-life at 0.1 µM,[6],4.99 h
same,half-life at 0.1 µM,[7],12.1 h
same,half-life at 0.1 µM,[8],14.3 h
same,CLint,[9],7.02 mL/min/g
same,CLint,[10],2.9 mL/min/g
same,CLint,[11],2.4 mL/min/g
same,"remaining at 1 h, 0.1 µM",[12],73.6%
same,"remaining at 1 h, 0.1 µM",[13],93.9%
same,"remaining at 1 h, 0.1 µM",[14],94.8%
same,Activity,[15],Non-Toxic
same,Activity,[16],Non-Toxic
same,Activity,[17],Non-Toxic
same,Activity,[18],Non-Toxic
same,Activity,[19],Non-Toxic
same,Activity,[20],Non-Toxic
same,Activity,[21],20 - 35%
O=C(O)CCCCNS(=O)(=O)c1cc(Cl)cc(Cl)c1,Ki,[2],1.19 µM
